Experiments:
[1] = helper lipid; cited from earlier work
[2] = Critical micelle concentration in aqueous solution; assay type: physicochemical
[3] = Photoisomerization of Azo lipidoids in DMSO (UV-Vis absorption); assay type: physicochemical; conditions: for UV irradiation time until spectral changes level off (photostationary state): UV 365 nm, 5.40 mW/cm^2; for additional Vis irradiation time that reverses the spectral change: Vis >400 nm, 20 mW/cm^2
Procedure: Azo lipidoid was prepared as 50 μM solution in anhydrous dimethyl sulfoxide (DMSO). The sample was irradiated with UV (365 nm for 6 s) and Vis light (>400 nm for 6 s), respectively. The power densities for 365 and >400 nm was 5.40 and 20 mW/cm^2, respectively.
SAzo lipidoid was prepared as 30 μM solution in anhydrous dimethyl sulfoxide (DMSO). TAzo lipidoid was prepared as 15 μM solution in DMSO. These samples were irradiated with UV (365 nm for 6 s) and Vis light (>400 nm for 6 s), respectively. The power densities for 365 and >400 nm are 5.40 and 20 mW/cm^2, respectively.

[4] = test system: 4T1 tumor cells; test: Cell cytotoxicity using CCK-8 assay; assay type: cell-based, mouse
Procedure: In vitro cytotoxicity was assessed by the standard CCK-8 assay. To test the cytotoxicity of DSPC-Azo@GOx with or without UV/Vis light irradiation, 4T1 tumor cells were seeded in the basolateral chamber of a 24-well transwell plate at a density of 10^5 cells per well and cultured in 5% CO2 at 37° C. for overnight (16 h). Then, DSPC-Azo@GOx was added to the upper chamber. Then, the samples were irradiated using the UV/Vis light (irradiated for 5 min every 8 hours). After three irradiation, the cell viability was measured using CCK-8 kit according to the manufacturer's instruction.

| Compound | Tm (phase transition temperature) [1] [°C] | headgroup surface area [1] | UV irradiation time until spectral changes level off (photostationary state) [3] [s] | additional Vis irradiation time that reverses the spectral change [3] [s] | further results |
| --- | --- | --- | --- | --- | --- |
| CCCCCCCCCCCCCCCC(=O)OC[C@H](COP(=O)([O-])OCC[N+](C)(C)C)OC(=O)CCCCCCCCCCCCCCC [DPPC, dipalmitoylphosphatidylcholine] | 41.3 | ~ 0.665 nm^2 | – | – | – |
| CCCCCCCCCCCC(=O)Nc1ccc(/N=N/c2ccc(C[N+](C)(C)C)cc2)cc1 [Azo lipidoid] | – | – | 6 | 6 | critical micelle concentration (CMC) [2]: ≈ 30 μM; dose dependent cell viability ([4]; 4T1 cells, 24 h incubation): relatively good biocompatibility |
| Glucose Oxidase [GOx] | – | – | – | – | cell viability with versus without UV/Vis light treatment ([4]; dialysis setup, 24 h): no significant differences in cell viabilities |
| CCCCCCCCCCCCCC(=O)OC[C@H](COP(=O)([O-])OCC[N+](C)(C)C)OC(=O)CCCCCCCCCCCCC [DMPC, dimyristoylphosphatidylcholine] | 24.1 | ~ 0.665 nm^2 | – | – | – |
| CCCCCCCCCCCC(=O)Nc1ccc(/N=N/c2ccc(C[N+](C)(C)CC[N+](C)(C)Cc3ccc(/N=N/c4ccc(NC(=O)CCCCCCCCCCC)cc4)cc3)cc2)cc1 [TAzo lipidoid] | – | – | 6 | 6 | – |
| CCCCCCCCCCCCCCCCCC(=O)OC[C@H](COP(=O)([O-])OCC[N+](C)(C)C)OC(=O)CCCCCCCCCCCCCCCCC [DSPC, distearoylphosphatidylcholine] | 55 | ~ 0.430 nm^2 | – | – | – |
